Experimental data taken from patent US10081628B2, “Apoptosis-inducing agents for the treatment of cancer and immune and autoimmune diseases” (AbbVie Inc., priority 2013, dated 2018).

Experiments:
[1] = tested on: RS4;11 cells; experiment: RS4;11 cell viability assay (CellTiter Glo); assay type: cell-based; details: 10% human serum, 48 hours
Excerpt: The acute lymphoblastic leukemia (ALL) cell line RS4;11 was used as the primary human cell line to assess the cellular activity of Bcl-2 selective agents in vitro and their efficacy in vivo. Previous studies have shown by BH3 profiling, a mitochondrial assay that classifies blocks in the intrinsic apoptotic pathway, that RS4;11 cells were highly dependant on BCL-2 for survival and sensitive to the Bcl-2 family member inhibitor ABT-737 (Blood, 2008, Vol. 111, 2300-2309).
RS4;11 cells were cultured in RPMI-1640 supplemented with 2 mM L-glutamine, 10% FBS, 1 mM sodium pyruvate, 2 mM HEPES, 1% penicillin/streptomycin (Invitrogen), 4.5 g/L glucose and maintained at 37 C containing 5% CO2. To test for the cellular activity of compounds in vitro, cells were treated at 50,000 cells per well in 96-well microtiter plates in the presence of 10% human serum for 48 hours in a humidified chamber with 5% CO2. Cell cytotoxicity EC50 values were assessed using CellTiter Glo (Promega) according to the manufacturer's recommendations. The EC50 values were determined as a percentage of viable cells following treatment compared to the untreated control cells.

[2] = target: GST-Bcl-2 (Homo sapiens, UniProt P10415); experiment: TR-FRET Bcl-2 binding assay (F-Bak peptide probe); details: GST-Bcl-2 1 nM, F-Bak peptide probe 100 nM, Tb-anti-GST 1 nM; Wang's equation; '<' = below limit of detection
Procedure: Determination of the utility of compounds of this invention as binders to and inhibitors of anti-apoptotic Bcl-2 proteins was performed using the Time Resolved-Fluorescence Resonance Energy Transfer (TR-FRET) Assay. Tb-anti-GST antibody was purchased from Invitrogen (Catalog No. PV4216).
Representative compounds were serially diluted in dimethyl sulfoxide (DMSO) starting at 50 μM (2× starting concentration; 10% DMSO) and 10 μL were transferred into a 384-well plate. The samples are then mixed on a shaker for 1 minute and incubated for an additional 3 hours at room temperature. For each assay, the probe/antibody and protein/probe/antibody were included on each assay plate as negative and positive controls, respectively. Fluorescence was measured on the Envision (Perkin Elmer) using a 340/35 nm excitation filter and 520/525 (F-Bak peptide) and 495/510 nm (Tb-labeled […] antibody) emission filters. Dissociation constants (Ki) are shown in TABLE 2 below and were determined using Wang's equation (Wang Z.-X., An Exact Mathematical Expression For Describing Competitive Binding Of Two Different Ligands To A Protein Molecule. FEBS Lett. 1995, 360:111-4).
The samples were then mixed on a shaker for 1 minute and incubated for an additional 3 hours at room temperature. For each assay, the probe/antibody and protein/probe/antibody were included on each assay plate as negative and positive controls, respectively. Fluorescence was measured on the Envision (Perkin Elmer) using a 340/35 nm excitation filter and 520/525 (F-Bak peptide) and 495/510 nm (Tb-labeled anti-Histidine antibody) emission filters.
Inhibition constants (Ki) for compounds were determined using Wang's equation (Wang Zx. An Exact Mathematical Expression For Describing Competitive Binding Of Two Different Ligands To A Protein Molecule. FEBS Lett. 1995, 360:111-4).
The inhibition constant (Ki) is the dissociation constant of an enzyme-inhibitor complex or a protein/small molecule complex, wherein the small molecule is inhibiting binding of one protein to another protein or peptide. So a large Ki value indicates a low binding affinity and a small Ki value indicates a high binding affinity. […] The compounds are therefore expected to have utility in treatment of diseases during which anti-apoptotic Bcl-2 protein is expressed. Biological Data

GST-Bcl-2, sequence (P10415 whole entry): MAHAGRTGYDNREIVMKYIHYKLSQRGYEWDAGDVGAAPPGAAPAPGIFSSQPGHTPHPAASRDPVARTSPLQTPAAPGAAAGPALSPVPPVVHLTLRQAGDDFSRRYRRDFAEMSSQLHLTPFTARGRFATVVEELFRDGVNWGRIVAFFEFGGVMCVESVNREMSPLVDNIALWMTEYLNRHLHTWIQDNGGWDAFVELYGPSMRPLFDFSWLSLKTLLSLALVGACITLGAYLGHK

SMILES | EC50 [1] [nM] | Ki [2] [nM]
CC1(C)CCC(CN2CCN(c3ccc(C(=O)NS(=O)(=O)c4ccc(NC[C@H]5CC[C@]6(CCCO6)CC5)c([N+](=O)[O-])c4)c(Oc4cnc5[nH]ccc5c4)c3)CC2)=C(c2ccc(Cl)cc2)C1 [Example 4, 4-(4-{[2-(4-chlorophenyl)-4,4-dimethylcyclohex-1-en-1-yl]methyl}piperazin-1-yl)-N-[(3-nitro-4-{[(5S,8S)-1-oxaspiro[4.5]dec-8-ylmethyl]amino}phenyl)sulfonyl]-2-(1H-pyrrolo[2,3-b]pyridin-5-yloxy)benzamide] | 57 | < 0.1
CC(=O)N1CCC(CNc2ccc(S(=O)(=O)NC(=O)c3ccc(N4CCN(CC5=C(c6ccc(Cl)cc6)CC(C)(C)CC5)CC4)cc3Oc3cnc4[nH]ccc4c3)cc2[N+](=O)[O-])CC1 [Example 47, N-[(4-{[(1-acetylpiperidin-4-yl)methyl]amino}-3-nitrophenyl)sulfonyl]-4-(4-{[2-(4-chlorophenyl)-4,4-dimethylcyclohex-1-en-1-yl]methyl}piperazin-1-yl)-2-(1H-pyrrolo[2,3-b]pyridin-5-yloxy)benzamide] | 14 | < 0.1
CC1(C)CCC(CN2CCN(c3ccc(C(=O)NS(=O)(=O)c4ccc(NC[C@H]5C[C@H](C#N)C5)c([N+](=O)[O-])c4)c(Oc4cnc5[nH]ccc5c4)c3)CC2)=C(c2ccc(Cl)cc2)C1 [Example 41, 4-(4-{[2-(4-chlorophenyl)-4,4-dimethylcyclohex-1-en-1-yl]methyl}piperazin-1-yl)-N-[(4-{[(trans-3-cyanocyclobutyl)methyl]amino}-3-nitrophenyl)sulfonyl]-2-(1H-pyrrolo[2,3-b]pyridin-5-yloxy)benzamide] | 47 | < 0.1
CC1(C)CCC(CN2CCN(c3ccc(C(=O)NS(=O)(=O)c4ccc(NCC5CCOCC5)c([N+](=O)[O-])c4)c(Oc4cnc5[nH]ccc5c4)c3)CC2)=C(c2ccc(Cl)c(Cl)c2)C1 [Example 53, 4-(4-{[2-(3,4-dichlorophenyl)-4,4-dimethylcyclohex-1-en-1-yl]methyl}piperazin-1-yl)-N-({3-nitro-4-[(tetrahydro-2H-pyran-4-ylmethyl)amino]phenyl}sulfonyl)-2-(1H-pyrrolo[2,3-b]pyridin-5-yloxy)benzamide] | 46 | 0.2
CC1(C)CCC(CN2CCN(c3ccc(C(=O)NS(=O)(=O)c4ccc(N5CCOCC5)c([N+](=O)[O-])c4)c(Oc4cnc5[nH]ccc5c4)c3)CC2)=C(c2ccc(Cl)cc2)C1 [Example 8, 4-(4-{[2-(4-chlorophenyl)-4,4-dimethylcyclohex-1-en-1-yl]methyl}piperazin-1-yl)-N-{[4-(morpholin-4-yl)-3-nitrophenyl]sulfonyl}-2-(1H-pyrrolo[2,3-b]pyridin-5-yloxy)benzamide] | > 1000 | 0.7
CC1(C)CCC(CN2CCN(c3ccc(C(=O)NS(=O)(=O)c4ccc(NCC5CCS(=O)(=O)CC5)c([N+](=O)[O-])c4)c(Oc4cnc5[nH]ccc5c4)c3)CC2)=C(c2ccc(Cl)cc2)C1 [Example 43, 4-(4-{[2-(4-chlorophenyl)-4,4-dimethylcyclohex-1-en-1-yl]methyl}piperazin-1-yl)-N-[(4-{[(1,1-dioxidotetrahydro-2H-thiopyran-4-yl)methyl]amino}-3-nitrophenyl)sulfonyl]-2-(1H-pyrrolo[2,3-b]pyridin-5-yloxy)benzamide] | 31 | < 0.1
CC1(C)CCC(CN2CCN(c3ccc(C(=O)NS(=O)(=O)c4ccc(NCC5CCN(S(=O)(=O)C(F)(F)F)CC5)c([N+](=O)[O-])c4)c(Oc4cnc5[nH]ccc5c4)c3)CC2)=C(c2ccc(Cl)cc2)C1 [Example 29, 4-(4-{[2-(4-chlorophenyl)-4,4-dimethylcyclohex-1-en-1-yl]methyl}piperazin-1-yl)-N-({3-nitro-4-[({1-[(trifluoromethyl)sulfonyl]piperidin-4-yl}methyl)amino]phenyl}sulfonyl)-2-(1H-pyrrolo[2,3-b]pyridin-5-yloxy)benzamide] | 57 | < 0.1
CC1(C)CCC(CN2CCN(c3ccc(C(=O)NS(=O)(=O)c4ccc(NCC5CCN(S(C)(=O)=O)CC5)c([N+](=O)[O-])c4)c(Oc4cnc5[nH]ccc5c4)c3)CC2)=C(c2ccc(Cl)cc2)C1 [Example 30, 4-(4-{[2-(4-chlorophenyl)-4,4-dimethylcyclohex-1-en-1-yl]methyl}piperazin-1-yl)-N-{[4-({[1-(methylsulfonyl)piperidin-4-yl]methyl}amino)-3-nitrophenyl]sulfonyl}-2-(1H-pyrrolo[2,3-b]pyridin-5-yloxy)benzamide] | 27 | < 0.1
CC1(C)CCC(CN2CCN(c3ccc(C(=O)NS(=O)(=O)c4ccc(NCC5CC[S+]([O-])CC5)c([N+](=O)[O-])c4)c(Oc4cnc5[nH]ccc5c4)c3)CC2)=C(c2ccc(Cl)cc2)C1 (stereo not shown) [Example 32, 4-(4-{[2-(4-chlorophenyl)-4,4-dimethylcyclohex-1-en-1-yl]methyl}piperazin-1-yl)-N-[(3-nitro-4-{[(1-oxidotetrahydro-2H-thiopyran-4-yl)methyl]amino}phenyl)sulfonyl]-2-(1H-pyrrolo[2,3-b]pyridin-5-yloxy)benzamide] | 43 | < 0.1
CC1(C)CCC(CN2CCN(c3ccc(C(=O)NS(=O)(=O)c4ccc(NCC5(CO)COC5)c([N+](=O)[O-])c4)c(Oc4cnc5[nH]ccc5c4)c3)CC2)=C(c2ccc(Cl)cc2)C1 [Example 11, 4-(4-{[2-(4-chlorophenyl)-4,4-dimethylcyclohex-1-en-1-yl]methyl}piperazin-1-yl)-N-{[4-({[3-(hydroxymethyl)oxetan-3-yl]methyl}amino)-3-nitrophenyl]sulfonyl}-2-(1H-pyrrolo[2,3-b]pyridin-5-yloxy)benzamide] | 15 | < 0.1
CC1(C)CCC(CN2CCN(c3ccc(C(=O)NS(=O)(=O)c4ccc(NCC5(C)COC5)c([N+](=O)[O-])c4)c(Oc4cnc5[nH]ccc5c4)c3)CC2)=C(c2ccc(Cl)cc2)C1 [Example 38, 4-(4-{[2-(4-chlorophenyl)-4,4-dimethylcyclohex-1-en-1-yl]methyl}piperazin-1-yl)-N-[(4-{[(3-methyloxetan-3-yl)methyl]amino}-3-nitrophenyl)sulfonyl]-2-(1H-pyrrolo[2,3-b]pyridin-5-yloxy)benzamide] | 30 | < 0.1
CC1(C)CCC(CN2CCN(c3ccc(C(=O)NS(=O)(=O)c4ccc(NCC5COCCOC5)c([N+](=O)[O-])c4)c(Oc4cnc5[nH]ccc5c4)c3)CC2)=C(c2ccc(Cl)cc2)C1 [Example 51, 4-(4-{[2-(4-chlorophenyl)-4,4-dimethylcyclohex-1-en-1-yl]methyl}piperazin-1-yl)-N-({4-[(1,4-dioxepan-6-ylmethyl)amino]-3-nitrophenyl}sulfonyl)-2-(1H-pyrrolo[2,3-b]pyridin-5-yloxy)benzamide] | 39 | < 0.1
CC1(C)CCC(CN2CCN(c3ccc(C(=O)NS(=O)(=O)c4ccc(NCC5CC(F)(F)C5)c([N+](=O)[O-])c4)c(Oc4cnc5[nH]ccc5c4)c3)CC2)=C(c2ccc(Cl)cc2)C1 [Example 28, 4-(4-{[2-(4-chlorophenyl)-4,4-dimethylcyclohex-1-en-1-yl]methyl}piperazin-1-yl)-N-[(4-{[(3,3-difluorocyclobutyl)methyl]amino}-3-nitrophenyl)sulfonyl]-2-(1H-pyrrolo[2,3-b]pyridin-5-yloxy)benzamide] | 120 | < 0.1
CC1(C)CCC(CN2CCN(c3ccc(C(=O)NS(=O)(=O)c4ccc(NC[C@H]5CCOC(C)(C)C5)c([N+](=O)[O-])c4)c(Oc4cnc5[nH]ccc5c4)c3)CC2)=C(c2ccc(Cl)cc2)C1 [Example 33, 4-(4-{[2-(4-chlorophenyl)-4,4-dimethylcyclohex-1-en-1-yl]methyl}piperazin-1-yl)-N-{[4-({[(4S)-2,2-dimethyltetrahydro-2H-pyran-4-yl]methyl}amino)-3-nitrophenyl]sulfonyl}-2-(1H-pyrrolo[2,3-b]pyridin-5-yloxy)benzamide] | 44 | < 0.1
